Laboratory results: US10131652B2, “Pyrimidinyloxy benzene derivatives as herbicides” (E. I. DU PONT DE NEMOURS AND COMPANY, priority 2014, dated 2018)

Key:
Format in all cases: in vivo
[1] = test system: blackgrass (Alopecurus myosuroides); experiment: Test B postemergence plant response
Summary of the method: (§1)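 Injury was assessed visually about 10 days after treatment, scored from 0 (no effect) to 100 (complete control) by comparison with untreated controls. Test chemicals had been applied postemergence to potted plants at the one- to two-leaf stage, grown in loam soil and sand in a greenhouse.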

[2] = test system: galium (catchweed bedstraw, Galium aparine); experiment: Test B postemergence plant response
Summary of the method: as §1

[3] = test system: barnyardgrass (Echinochloa crus-galli); experiment: Test C flooded paddy test plant response; details: Flood, 250 g ai/ha; scale of 0 to 100 where 0 is no effect and 100 is complete control; 13 to 15 days
Summary of the method: (§2)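 Water-applied treatment: compounds go directly into floodwater standing 3 cm over the soil of pots holding 2-leaf-stage plants. Depth is kept constant; plants stay in a greenhouse 13 to 15 days before visual comparison with controls on a 0–100 scale.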

[4] = test system: small-flower umbrella sedge (Cyperus difformis); experiment: Test C flooded paddy test plant response; details: Flood, 250 g ai/ha; scale of 0 to 100 where 0 is no effect and 100 is complete control; 13 to 15 days
Summary of the method: as §2

[5] = test system: ducksalad (Heteranthera limosa); experiment: Test C flooded paddy test plant response; details: Flood, 250 g ai/ha; scale of 0 to 100 where 0 is no effect and 100 is complete control; 13 to 15 days
Summary of the method: as §2

[6] = test system: rice (Oryza sativa); experiment: Test C flooded paddy test plant response; details: Flood, 250 g ai/ha; scale of 0 to 100 where 0 is no effect and 100 is complete control; 13 to 15 days
Summary of the method: as §2

[7] = test system: barnyardgrass (Echinochloa crus-galli); experiment: Test B pre-/postemergence plant response
Summary of the method: (§3)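 Greenhouse pots, loam/sand soil; compound formulated with surfactant in non-phytotoxic solvent. Preemergence soil spray and postemergence spray at 1–2 leaf stage run simultaneously. Visual injury, 0–100, about 10 days post-treatment.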

[8] = test system: ragweed (common ragweed, Ambrosia elatior); experiment: Test B pre-/postemergence plant response
Summary of the method: as §3

[9] = test system: corn (Zea mays); experiment: Test B pre-/postemergence plant response
Summary of the method: as §3

[10] = test system: Italian ryegrass (Lolium multiflorum); experiment: Test B pre-/postemergence plant response
Summary of the method: as §3

[11] = test system: kochia (Kochia scoparia); experiment: Test B pre-/postemergence plant response
Summary of the method: as §3

[12] = test system: wheat (Triticum aestivum); experiment: Test B pre-/postemergence plant response
Summary of the method: as §3

[13] = test system: giant foxtail (Setaria faberii); experiment: Test B pre-/postemergence plant response
Summary of the method: as §3

[14] = test system: pigweed (Amaranthus retroflexus); experiment: Test B pre-/postemergence plant response
Summary of the method: as §3

[15] = 125 g ai/ha, postemergence, 0 to 100 scale, 0 no effect, 100 complete control
[16] = Postemergence, 31 g ai/ha, 0 to 100 scale (0 no effect, 100 complete control)
[17] = 31 g ai/ha, Preemergence, 0 to 100 scale where 0 is no effect and 100 is complete control
[18] = Preemergence, 125 g ai/ha, 0 to 100 scale (0 no effect, 100 complete control)
[19] = Postemergence, 500 g ai/ha, 0 to 100 scale (0 no effect, 100 complete control)
[20] = Preemergence, 500 g ai/ha, 0 to 100 scale where 0 is no effect and 100 is complete control

Compound	Plant response rating, Blackgrass [1, 15]	Plant response rating, Galium [2, 15]	Barnyardgrass plant response rating [3]	Sedge, Umbrella plant response rating [4]	Ducksalad plant response rating [5]	Rice plant response rating [6]	Plant response rating, Barnyardgrass [7, 15]	Barnyardgrass plant response rating [7, 18]	Plant response rating, Ragweed [8, 15]	Ragweed plant response rating [8, 18]	Plant response rating, Corn [9, 15]	Plant response rating, Ryegrass, Italian [10, 15]	Ryegrass, Italian plant response rating [10, 18]	Plant response rating, Kochia [11, 15]	Kochia plant response rating [11, 18]	Plant response rating, Wheat [12, 15]	Plant response rating, Foxtail, Giant [13, 15]	Foxtail, Giant plant response rating [13, 18]	Plant response rating, Pigweed [14, 15]	Pigweed plant response rating [14, 18]	further results
Cn1nc(-c2c(C#N)cccc2Oc2ncc(Cl)cn2)cc1C(F)(F)F [Compound 146]	30	50	0	0	0	0	20	30	0	0	0	0	0	60	0	0	20	20	60	70	Plant response rating, Blackgrass [1, 16]: 0; Plant response rating, Galium [2, 16]: 30; Plant response rating, Barnyardgrass [7, 17]: 0; Plant response rating, Barnyardgrass [7, 16]: 0; Plant response rating, Ragweed [8, 17]: 0; Plant response rating, Ragweed [8, 16]: 0; Plant response rating, Corn [9, 16]: 0; Plant response rating, Ryegrass, Italian [10, 17]: 0; Plant response rating, Ryegrass, Italian [10, 16]: 0; Plant response rating, Kochia [11, 17]: 0; Plant response rating, Kochia [11, 16]: 50; Plant response rating, Wheat [12, 16]: 0; Plant response rating, Foxtail, Giant [13, 17]: 0; Plant response rating, Foxtail, Giant [13, 16]: 0; Plant response rating, Pigweed [14, 17]: 0; Plant response rating, Pigweed [14, 16]: 30
Cn1nc(-c2c(Br)cccc2Oc2ncc(Cl)cn2)cc1C(F)(F)F [Compound 147]	0	0	0	0	0	0	0	0	0	0	0	0	0	0	0	0	0	0	0	0	Plant response rating, Blackgrass [1, 16]: 0; Plant response rating, Galium [2, 16]: 0; Plant response rating, Barnyardgrass [7, 17]: 0; Plant response rating, Barnyardgrass [7, 16]: 0; Plant response rating, Ragweed [8, 17]: 0; Plant response rating, Ragweed [8, 16]: 0; Plant response rating, Corn [9, 16]: 0; Plant response rating, Ryegrass, Italian [10, 17]: 0; Plant response rating, Ryegrass, Italian [10, 16]: 0; Plant response rating, Kochia [11, 17]: 0; Plant response rating, Kochia [11, 16]: 0; Plant response rating, Wheat [12, 16]: 0; Plant response rating, Foxtail, Giant [13, 17]: 0; Plant response rating, Foxtail, Giant [13, 16]: 0; Plant response rating, Pigweed [14, 17]: 0; Plant response rating, Pigweed [14, 16]: 0
CC(=O)c1cc(-c2ccccc2Oc2ncc(Br)cn2)no1 [Compound 150]	10	10	0	0	0	0	20	20	0	0	10	0	0	0	0	0	10	20	20	20	Plant response rating, Blackgrass [1, 16]: 0; Plant response rating, Galium [2, 16]: 0; Plant response rating, Barnyardgrass [7, 17]: 0; Plant response rating, Barnyardgrass [7, 16]: 0; Plant response rating, Ragweed [8, 17]: 0; Plant response rating, Ragweed [8, 16]: 0; Plant response rating, Corn [9, 16]: 0; Plant response rating, Ryegrass, Italian [10, 17]: 0; Plant response rating, Ryegrass, Italian [10, 16]: 0; Plant response rating, Kochia [11, 17]: 0; Plant response rating, Kochia [11, 16]: 0; Plant response rating, Wheat [12, 16]: 0; Plant response rating, Foxtail, Giant [13, 17]: 0; Plant response rating, Foxtail, Giant [13, 16]: 0; Plant response rating, Pigweed [14, 17]: 0; Plant response rating, Pigweed [14, 16]: 10
Cn1ccnc1-c1ccccc1Oc1ncc(Cl)cn1 [Compound 151]	0	0	0	0	0	0	0	0	0	0	0	0	0	0	0	0	0	0	0	0	Plant response rating, Blackgrass [1, 19]: 0; Plant response rating, Galium [2, 19]: 0; Plant response rating, Barnyardgrass [7, 19]: 0; Plant response rating, Barnyardgrass [7, 20]: 0; Plant response rating, Ragweed [8, 19]: 0; Plant response rating, Ragweed [8, 20]: 0; Plant response rating, Corn [9, 19]: 0; Plant response rating, Ryegrass, Italian [10, 19]: 0; Plant response rating, Ryegrass, Italian [10, 20]: 0; Plant response rating, Kochia [11, 19]: 0; Plant response rating, Kochia [11, 20]: 0; Plant response rating, Wheat [12, 19]: 0; Plant response rating, Foxtail, Giant [13, 19]: 0; Plant response rating, Foxtail, Giant [13, 20]: 0; Plant response rating, Pigweed [14, 19]: 0; Plant response rating, Pigweed [14, 20]: 0
Cn1ccnc1-c1ccccc1Oc1ncc(Br)cn1 [Compound 152]	0	0	0	0	0	0	0	0	0	0	0	0	0	0	0	0	0	0	0	0	Plant response rating, Blackgrass [1, 19]: 0; Plant response rating, Galium [2, 19]: 0; Plant response rating, Barnyardgrass [7, 19]: 0; Plant response rating, Barnyardgrass [7, 20]: 0; Plant response rating, Ragweed [8, 19]: 0; Plant response rating, Ragweed [8, 20]: 0; Plant response rating, Corn [9, 19]: 0; Plant response rating, Ryegrass, Italian [10, 19]: 0; Plant response rating, Ryegrass, Italian [10, 20]: 0; Plant response rating, Kochia [11, 19]: 0; Plant response rating, Kochia [11, 20]: 0; Plant response rating, Wheat [12, 19]: 0; Plant response rating, Foxtail, Giant [13, 19]: 0; Plant response rating, Foxtail, Giant [13, 20]: 0; Plant response rating, Pigweed [14, 19]: 0; Plant response rating, Pigweed [14, 20]: 0
